Results taken from US6048875A, “Benzothiophene, benzofuran and indole compounds” (Adir et Compagnie, priority 1998, dated 2000).

biological target: recombinant active human PAI-1 (Homo sapiens, UniProt P05121); test: Inhibition of the activity of PAI-1 (fibrin clot formation and breakdown monitored by turbidity in microplate wells; fibrinolytic activity); format: biochemical; conditions: in vitro, pH 7.4 phosphate buffer, clot absorbance two hours after fibrin formation, 2 nM PAI-1 solution, tissue plasminogen activator, fibrinogen, human thrombin, read-out: fibrinolytic activity IC50 (concentration of product that inhibits PAI-1 activity by 50%)
Sequence (P05121 24-402): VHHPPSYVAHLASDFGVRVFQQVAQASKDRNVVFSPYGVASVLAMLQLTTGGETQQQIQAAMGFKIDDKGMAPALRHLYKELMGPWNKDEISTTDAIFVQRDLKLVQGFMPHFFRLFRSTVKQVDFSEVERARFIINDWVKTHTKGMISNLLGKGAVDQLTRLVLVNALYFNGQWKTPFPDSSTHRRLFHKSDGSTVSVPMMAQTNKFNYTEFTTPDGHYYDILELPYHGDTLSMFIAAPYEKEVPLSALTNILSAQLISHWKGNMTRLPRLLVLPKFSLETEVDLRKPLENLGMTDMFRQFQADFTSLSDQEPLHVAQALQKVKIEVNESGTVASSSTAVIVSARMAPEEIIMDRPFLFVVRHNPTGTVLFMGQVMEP

IC50 [µM] | Compound
13 | COc1ccc(Oc2c(/C=C(/C(=O)O)c3ccncc3)sc3cc(OCc4ccccc4)c(OCc4ccccc4)cc23)cc1
7 | O=C(O)/C(=C/c1sc2cc(OCc3ccccc3)c(OCc3ccccc3)cc2c1Oc1ccc(OCc2ccccc2)cc1)c1ccncc1
2.2 | O=C(O)/C(=C/c1sc2cc(OCc3ccccc3)c(OCc3ccccc3)cc2c1Oc1ccc(-c2ccncc2)cc1)c1ccncc1 [Example 66]
5 | COc1cc2sc(/C=C(/C(=O)O)c3ccncc3)c(Oc3cccnc3)c2cc1OCc1ccccc1 [Example 67]
